≈ marks a conversion by molar mass, not a printed value.
Columns and labels:
Assay in all cases: ≥ marks a high value that may be exact or a test limit, other limits are often not marked, values filed in µg/mL are converted to µM
[1] = test system: Escherichia coli
[2] = test system: Escherichia coli K99
[3] = test system: Salmonella enterica subsp. enterica serovar Typhimurium C77-31
[4] = test system: Salmonella enterica subsp. enterica serovar Typhimurium ATCC 14028
[5] = test system: Pseudomonas aeruginosa CICC 21625
[6] = test system: Acinetobacter baumannii
[7] = test system: Pseudomonas aeruginosa
[8] = test system: Escherichia coli ATCC 25922
[9] = test system: Escherichia coli K88
[10] = test system: Escherichia coli UB1005
[11] = test system: Pseudomonas aeruginosa CICC 21630
[12] = test system: Pseudomonas aeruginosa PAO1
[13] = test system: Klebsiella pneumoniae
[14] = test system: Pseudomonas aeruginosa ATCC 27853
[15] = test system: Salmonella enterica subsp. enterica serovar Pullorum C79-13
[16] = test system: Staphylococcus aureus ATCC 43300
[17] = test system: Acinetobacter baumannii ATCC 19606
[18] = test system: Candida albicans ATCC 90028
[19] = test system: Bacillus subtilis ATCC 6051
[20] = test system: Klebsiella pneumoniae ATCC BAA-2146
[21] = test system: Klebsiella pneumoniae ATCC 13883
[22] = test system: Cryptococcus neoformans ATCC 208821
[23] = test system: Klebsiella pneumoniae ATCC 700603

MIC [1] [µM]	MIC [2] [µM]	MIC [3] [µM]	MIC [4] [µM]	MIC [5] [µM]	MIC [6] [µM]	MIC [7] [µM]	MIC [8] [µM]	MIC [9] [µM]	MIC [10] [µM]	MIC [11] [µM]	MIC [12] [µM]	MIC [13] [µM]	MIC [14] [µM]	MIC [15] [µM]	MIC [16] [µM]	MIC [17] [µM]	MIC [18] [µM]	MIC [19] [µM]	MIC [20] [µM]	also measured	SMILES
> 64	≥ 64	≥ 64	> 64	≥ 64	≥ 64	> 64	> 64	≥ 64	≥ 64	≥ 64	> 64	> 64	> 64	≥ 64							CC[C@H](C)[C@H](N)C(=O)N[C@@H](CCCCN)C(=O)N1CCC[C@H]1C(=O)N[C@H](C(=O)N[C@H](C(=O)N[C@@H](CCCCN)C(=O)N1CCC[C@H]1C(=O)N[C@H](C(=O)N[C@H](C(=O)N[C@@H](CCCCN)C(=O)N1CCC[C@H]1C(=O)N[C@H](C(=O)N[C@H](C(=O)N[C@@H](CCCCN)C(=O)N1CCC[C@H]1C(=O)N[C@H](C(=O)N[C@H](C(=O)N[C@@H](CCCCN)C(=O)N1CCC[C@H]1C(=O)N[C@H](C(N)=O)[C@@H](C)CC)[C@@H](C)CC)[C@@H](C)CC)[C@@H](C)CC)[C@@H](C)CC)[C@@H](C)CC)[C@@H](C)CC)[C@@H](C)CC)[C@@H](C)CC [IKPIIKPIIKPIIKPIIKPI]
8 (≈ 19.3 µg/mL)	4 (≈ 9.66 µg/mL)	16 (≈ 38.6 µg/mL)	8 (≈ 19.3 µg/mL)	≥ 64	4 (≈ 9.66 µg/mL)	> 64	8 (≈ 19.3 µg/mL)	1 (≈ 2.42 µg/mL)	4 (≈ 9.66 µg/mL)	≥ 64	64 (≈ 155 µg/mL)	8 (≈ 19.3 µg/mL)	32 (≈ 77.3 µg/mL)	8 (≈ 19.3 µg/mL)							CC[C@H](C)[C@H](N)C(=O)N[C@@H](CCCN=C(N)N)C(=O)N1CCC[C@H]1C(=O)N[C@H](C(=O)N[C@H](C(=O)N[C@@H](CCCN=C(N)N)C(=O)N1CCC[C@H]1C(=O)N[C@H](C(=O)N[C@H](C(=O)N[C@@H](CCCN=C(N)N)C(=O)N1CCC[C@H]1C(=O)N[C@H](C(=O)N[C@H](C(=O)N[C@@H](CCCN=C(N)N)C(=O)N1CCC[C@H]1C(=O)N[C@H](C(=O)N[C@H](C(=O)N[C@@H](CCCN=C(N)N)C(=O)N1CCC[C@H]1C(=O)N[C@H](C(N)=O)[C@@H](C)CC)[C@@H](C)CC)[C@@H](C)CC)[C@@H](C)CC)[C@@H](C)CC)[C@@H](C)CC)[C@@H](C)CC)[C@@H](C)CC)[C@@H](C)CC [IRPIIRPIIRPIIRPIIRPI]
					0.232 (≈ 0.499 µg/mL)	1.86 (≈ 3.99 µg/mL)	0.116 (≈ 0.25 µg/mL)					> 7.43	0.232 (≈ 0.499 µg/mL)		3.71 (≈ 7.99 µg/mL)	0.232 (≈ 0.499 µg/mL)	3.71 (≈ 7.99 µg/mL)	0.232 (≈ 0.499 µg/mL)	0.464 (≈ 0.998 µg/mL)	MIC [21]: 0.232 µM (≈ 0.499 µg/mL); MIC [22]: 0.232 µM (≈ 0.499 µg/mL); MIC [23]: 0.464 µM (≈ 0.998 µg/mL)	CC[C@H](C)[C@@H]1NC(=O)CNC(=O)[C@H](CCCN=C(N)N)NC(=O)[C@H](Cc2ccc(O)cc2)NC(=O)[C@@H]2CSSC[C@H](NC1=O)C(=O)N[C@@H](Cc1ccc(O)cc1)C(=O)N[C@@H](CCCN=C(N)N)C(=O)N[C@@H](CCCN=C(N)N)C(=O)N[C@H](C(=O)N[C@@H](CCCN=C(N)N)C(=O)O)CSSC[C@H](NC(=O)[C@H](C)NC(=O)[C@@H](N)CCCCN)C(=O)N[C@@H](Cc1ccccc1)C(=O)N[C@@H](CCCN=C(N)N)C(=O)N[C@@H](C(C)C)C(=O)N2 [KACFRVCYRGICYRRCR]
					7.77 (≈ 16 µg/mL)	> 7.77	3.89 (≈ 7.98 µg/mL)					> 7.77	> 7.77		> 7.77	> 7.77	7.77 (≈ 16 µg/mL)	7.77 (≈ 16 µg/mL)	7.77 (≈ 16 µg/mL)	MIC [21]: 7.77 µM (≈ 16 µg/mL); MIC [22]: 7.77 µM (≈ 16 µg/mL); MIC [23]: > 7.77 µM	CC(C)[C@@H]1NC(=O)[C@H](CCCN=C(N)N)NC(=O)[C@H](C)NC(=O)[C@@H](NC(=O)[C@H](Cc2c[nH]c3ccccc23)NC(=O)[C@@H](N)CCCCN)CSSC[C@@H](C(=O)N[C@@H](CCCN=C(N)N)C(=O)O)NC(=O)[C@H](CCCN=C(N)N)NC(=O)[C@H](CCCN=C(N)N)NC(=O)[C@H](Cc2ccc(O)cc2)NC(=O)[C@@H]2CSSC[C@H](NC1=O)C(=O)N[C@@H](C)C(=O)N[C@@H](CCCN=C(N)N)C(=O)NCC(=O)N[C@@H](C)C(=O)N2 [KWCARVCARGACYRRCR]
					0.228 (≈ 0.499 µg/mL)	0.912 (≈ 2 µg/mL)	0.057 (≈ 0.125 µg/mL)					7.3 (≈ 16 µg/mL)	0.228 (≈ 0.499 µg/mL)		1.82 (≈ 3.99 µg/mL)	0.228 (≈ 0.499 µg/mL)	3.65 (≈ 7.99 µg/mL)	0.114 (≈ 0.25 µg/mL)	0.228 (≈ 0.499 µg/mL)	MIC [21]: 0.228 µM (≈ 0.499 µg/mL); MIC [22]: 0.228 µM (≈ 0.499 µg/mL); MIC [23]: 0.228 µM (≈ 0.499 µg/mL)	CC[C@H](C)[C@@H]1NC(=O)CNC(=O)[C@H](CCCN=C(N)N)NC(=O)[C@H](Cc2ccc(O)cc2)NC(=O)[C@@H]2CSSC[C@H](NC1=O)C(=O)N[C@@H](Cc1ccc(O)cc1)C(=O)N[C@@H](CCCN=C(N)N)C(=O)N[C@@H](CCCN=C(N)N)C(=O)N[C@H](C(=O)N[C@@H](CCCN=C(N)N)C(=O)O)CSSC[C@H](NC(=O)[C@H](Cc1c[nH]c3ccccc13)NC(=O)[C@@H](N)CCCCN)C(=O)N[C@@H](C)C(=O)N[C@@H](CCCN=C(N)N)C(=O)N[C@@H](C(C)C)C(=O)N2 [KWCARVCYRGICYRRCR]
					0.918 (≈ 2 µg/mL)	7.34 (≈ 16 µg/mL)	0.115 (≈ 0.25 µg/mL)					> 7.34	0.459 (≈ 0.998 µg/mL)		7.34 (≈ 16 µg/mL)	0.23 (≈ 0.499 µg/mL)	3.67 (≈ 7.99 µg/mL)	0.23 (≈ 0.499 µg/mL)	0.918 (≈ 2 µg/mL)	MIC [21]: 0.918 µM (≈ 2 µg/mL); MIC [22]: 0.918 µM (≈ 2 µg/mL); MIC [23]: 0.459 µM (≈ 0.998 µg/mL)	CC[C@H](C)[C@@H]1NC(=O)CNC(=O)[C@H](CCCN=C(N)N)NC(=O)[C@H](Cc2ccc(O)cc2)NC(=O)[C@@H]2CSSC[C@H](NC1=O)C(=O)N[C@@H](Cc1ccc(O)cc1)C(=O)N[C@@H](CCCN=C(N)N)C(=O)N[C@@H](CCCN=C(N)N)C(=O)N[C@H](C(=O)N[C@@H](CCCN=C(N)N)C(=O)O)CSSC[C@H](NC(=O)[C@H](Cc1c[nH]c3ccccc13)NC(=O)[C@@H](N)CCCCN)C(=O)NCC(=O)N[C@@H](CCCN=C(N)N)C(=O)N[C@@H](C(C)C)C(=O)N2 [KWCGRVCYRGICYRRCR]
2 (≈ 6.36 µg/mL)	1 (≈ 3.18 µg/mL)	2 (≈ 6.36 µg/mL)	1 (≈ 3.18 µg/mL)	8 (≈ 25.4 µg/mL)	1 (≈ 3.18 µg/mL)	5.66 (≈ 18 µg/mL)	0.5 (≈ 1.59 µg/mL)	0.5 (≈ 1.59 µg/mL)	1 (≈ 3.18 µg/mL)	2 (≈ 6.36 µg/mL)	1 (≈ 3.18 µg/mL)	1 (≈ 3.18 µg/mL)	2 (≈ 6.36 µg/mL)	2 (≈ 6.36 µg/mL)							CC(C)C[C@H](NC(=O)[C@@H]1CCCN1C(=O)[C@H](CCCCN)NC(=O)[C@H](CC(C)C)NC(=O)[C@H](CC(C)C)NC(=O)[C@@H]1CCCN1C(=O)[C@H](CCCCN)NC(=O)[C@H](CC(C)C)NC(=O)[C@H](CC(C)C)NC(=O)[C@@H]1CCCN1C(=O)[C@H](CCCCN)NC(=O)[C@H](CC(C)C)NC(=O)[C@H](CC(C)C)NC(=O)[C@@H]1CCCN1C(=O)[C@H](CCCCN)NC(=O)[C@H](CC(C)C)NC(=O)[C@H](CC(C)C)NC(=O)[C@@H]1CCCN1C(=O)[C@H](CCCCN)NC(=O)[C@H](CC(C)C)NC(=O)[C@H](CC(C)C)NC(=O)[C@@H]1CCCN1C(=O)[C@H](CCCCN)NC(=O)[C@H](CC(C)C)NC(=O)[C@H](CC(C)C)NC(=O)[C@@H]1CCCN1C(=O)[C@H](CCCCN)NC(=O)[C@@H](N)CC(C)C)C(N)=O [LKPLLKPLLKPLLKPLLKPLLKPLLKPL]
2 (≈ 5.45 µg/mL)	2 (≈ 5.45 µg/mL)	8 (≈ 21.8 µg/mL)	4 (≈ 10.9 µg/mL)	≥ 64	4 (≈ 10.9 µg/mL)	45.3 (≈ 123 µg/mL)	1 (≈ 2.73 µg/mL)	1 (≈ 2.73 µg/mL)	2 (≈ 5.45 µg/mL)	≥ 32	4 (≈ 10.9 µg/mL)	8 (≈ 21.8 µg/mL)	4 (≈ 10.9 µg/mL)	4 (≈ 10.9 µg/mL)							CC(C)C[C@H](NC(=O)[C@@H]1CCCN1C(=O)[C@H](CCCCN)NC(=O)[C@H](CC(C)C)NC(=O)[C@H](CC(C)C)NC(=O)[C@@H]1CCCN1C(=O)[C@H](CCCCN)NC(=O)[C@H](CC(C)C)NC(=O)[C@H](CC(C)C)NC(=O)[C@@H]1CCCN1C(=O)[C@H](CCCCN)NC(=O)[C@H](CC(C)C)NC(=O)[C@H](CC(C)C)NC(=O)[C@@H]1CCCN1C(=O)[C@H](CCCCN)NC(=O)[C@H](CC(C)C)NC(=O)[C@H](CC(C)C)NC(=O)[C@@H]1CCCN1C(=O)[C@H](CCCCN)NC(=O)[C@H](CC(C)C)NC(=O)[C@H](CC(C)C)NC(=O)[C@@H]1CCCN1C(=O)[C@H](CCCCN)NC(=O)[C@@H](N)CC(C)C)C(N)=O [LKPLLKPLLKPLLKPLLKPLLKPL]
